Experimental data reported in patent publication US8377935B2, “Substituted aminopropenyl piperidine or morpholine derivatives as novel inhibitors of histone deacetylase” (Janssen Pharmaceutica N.V., priority 2005, dated 2013).

Assays:
p21 promoter [1] = assay: p21 induction capacity, cellular method (ZsGreen reporter in A2780 clones); format: cell-based, human; conditions: A2780 clones with p21 1300 bp promoter-ZsGreen reporter, 24 hours treatment, percentage of control
Procedure: (§1) A first method tests the capacity of compounds to induce p21 as the consequence of HDAC inhibition at the cellular level. […] The reporter gene is a fluorescent protein and the expression of the reporter gene is measured as the amount of fluorescent light emitted (see example C.6.a.). The second method is an in vivo method wherein mice are used for screening the pharmaceutical activity of a compound. The above described stably transformed tumour cells can be administered to mice in an amount sufficient to effect production of a tumour. After the tumour cells had sufficient time to form a tumour, a potentially active compound can be administered to the animals and the effect of said compound On the tumour cells is evaluated by measuring the expression of the reporter gene. […]
The A2780 selected clones were expanded and seeded at 10000 cells per well into 96-well plates. […] The p21 promoter activation leading to ZsGreen production and thus fluorescence, was monitored by the Ascent Fluoroskan (Thermo Labsystems, Brussels, Belgium).
For each experiment, controls (containing no drug) and a blank incubation (containing no cells or drugs) were run in parallel. […] For each sample, the value for p21 induction was expressed as the percentage of the value for p21 present in the control. […]

p21 promoter [2] = assay: p21 induction capacity, in vivo method (tumour fluorescence in nude mice); parameters: key: inactive (no fluorescence measurable); weaker, identical or better than R306465; weaker, identical or better than R306465; weaker, identical or better than R306465; conditions: oral administration, daily during 6 days, 20-40 mpk
Procedure: as §1
A selected clone was injected subcutaneous (10^7 cells/200 μl) into the flank of nude mice and a calliper measurable tumour was obtained after 12 days. […] Tumours were evaluated for fluorescence by the in-house developed Automated Whole Body Imaging System (Fluorescent stereomicroscope type Olympus® SZX12 equipped with a GFP filter and coupled to a CCD camera type IAI® CV-M90 controlled by a software package based on the IMAQ Vision Software from National Instruments®). […]

[3] = target: histone deacetylase (HeLa nuclear extracts); assay: In vitro assay for inhibition of histone deacetylase (HDAC Fluorescent Activity Assay, Fluor de Lys); format: biochemical; conditions: HeLa nuclear extracts 60 μg/ml, 75 μM Fluor de Lys substrate
Description: The in vitro assay for inhibition of histone deacetylase (see example C.1) measures the inhibition of HDAC enzymatic activity obtained with the compounds of formula (I).
The HDAC Fluorescent Activity Assay/Drug Discovery Kit of Biomol (cat.No: AK-500-0001) was used. The HDAC Fluorescent Activity Assay is based on the Fluor de Lys (Fluorogenic Histone deAcetylase Lysyl) substrate and developer combination. The Fluor de Lys substrate, comprises an acetylated lysine side chain. Deacetylation of the substrate sensitizes the substrate so that, in the second step, treatment with the Fluor de Lys developer produces a fluorophore.
HeLa nuclear extracts (supplier: Biomol) were incubated at 60 μg/ml with 75 μM of substrate. The Fluor de Lys substrate was added in a buffer containing 25 mM Tris, 137 mM. NaCl, 2.7 mM KCl and 1 mM MgCl2.6H2O at pH 7.4. After 30 min, 1 volume of the developer was added. The fluorophore was excited with 355 nm light and the emitted light (450 nm) was be detected on a fluorometric plate reader.
For each experiment, controls (containing HeLa nuclear extract and buffer), a blank incubation (containing buffer but no HeLa nuclear extract) and samples (containing compound dissolved in DMSO and further diluted in buffer and HeLa nuclear extract) were run in parallel. In first instance, compounds were tested at a concentration of 10^−5M. […] All sample were tested 4 times. In each test the blank value was substracted from both the control and the sample values. The control sample represented 100% of substrate deactylation. For each sample the fluorescence was expressed as a percentage of the mean value of the controls. […] Herein the effects of test compounds are expressed as pIC50 (the negative log value of the IC50-value) (see Table F-3).

- Enzyme activity pIC50 [3]: 9.0
Structure (SMILES): O=C(NO)c1cnc(N2CCC(CNC(/C=C/c3ccccc3)CO)CC2)nc1 (stereo not drawn) [Compound 1]
- p21 induction (p21 promoter [1]): significant induction (Percentage induction higher than 130% was defined as significant induction)
- tumour fluorescence (p21 induction) ranked against R306465 (p21 promoter [2]): better
